This passage reports IC90 results from patent US6809109B2, “2, 4-disubstituted-pyridine N-oxides useful as HIV reverse transcriptase inhibitors” (Bristol-Myers Squibb Company, priority 2002, dated 2004).

Values after ≈ are worked out from the molar mass of the structure shown.

This assay has as its system HIV-1 (RF). Description: HIV RNA assay, microplate based compound evaluation in HIV-1 infected MT-2 cells. Type of assay: cell-based. The following applies: Human immunodeficiency virus 1, MT2, 72 h; HIV-1 (RF) infected MT-2 cells, 3 days of culture; value used to standardize the virus inoculum; read-out: IC90 (concentration of compound required to reduce the HIV RNA level by 90%). On the procedure: Plasmid pDAB 72 containing both gag and pol sequences of BH10 (bp 113-1816) cloned into PTZ 19R was prepared according to Erickson-Viitanen et al. AIDS Research and Human Retroviruses 1989, 5, 577. The plasmid was linearized with Bam HI prior to the generation of in vitro RNA transcripts using the Riboprobe Gemini system II kit (Promega) with T7 RNA polymerase. Synthesized RNA was purified by treatment with RNase free DNAse (Promega), phenol-chloroform extraction, and ethanol precipitation. RNA transcripts were dissolved in water, and stored at −70° C. The concentration of RNA was determined from the A260.
Biotinylated capture probes were purified by HPLC after synthesis on an Applied Biosystems (Foster City, Calif.) DNA synthesizer by addition of biotin to the 5′ terminal end of the oligonucleotide, using the biotin-phosphoramidite reagent of Cocuzza, Tet. Lett. 1989, 30, 6287. […]
MT-2 and MT-4 cells were maintained in RPMI 1640 supplemented with 5% fetal calf serum (FCS) for MT-2 cells or 10% FCS for MT-4 cells, 2 mM L-glutamine and 50 μg/mL gentamycin, all from Gibco. […] Infectious titers of HIV-1(RF) stocks were 1-3×10^7 PFU (plaque forming units)/mL as measured by plaque assay on MT-2 cells (see below). […]

In the case of `Nc1ccn([C@H]2CC[C@@H](CO)O2)c(=O)n1` [ddC, dideoxycytidine], the IC90 came out at 0.2 µg/mL (≈ 0.947 µM).
